Results taken from ChEMBL document CHEMBL2385066, “Cationic porphyrin-quinoxaline conjugate as a photochemically triggered novel cytotoxic agent” (Bioorg Med Chem Lett, 2013).
pIC50: −log10 of the molar value. The source made the active and inactive calls. The calls are words filed in the database; no cut-off is given here.

How the values were obtained:
A549 [1] = assay: Phototoxicity against human A549 cells incubated for 24 hrs followed by exposure to visible-light for 10 mins measured after 24 hrs by WST assay; assay type: functional, cell-based
Escherichia coli [2] = assay: Induction of Escherichia coli pBR322 DNA cleavage assessed as conversion of supercoiled form to nicked circular form at 50 uM incubated for 30 mins followed by UV-irradiation for 1 to 60 mins by agarose gel electrophoretic analysis
DNA [3] = assay: Binding affinity to calf thymus DNA; assay type: nucleic-acid assay; conditions: Bos taurus
A549 [4] = assay: Ratio of TMPyP IC50 to compound IC50 for human A549 cells incubated for 24 hrs followed by exposure to visible-light for 10 mins measured after 24 hrs by WST assay; assay type: functional
A549 [5] = assay: Phototoxicity against human A549 cells incubated for 24 hrs followed by UV-irradiation for 10 mins measured after 24 hrs by WST assay; assay type: functional, cell-based
DNA [6] = assay: Binding affinity to calf thymus DNA assessed as decrease in fluorescence intensity at 2 uM by spectroscopic analysis; assay type: nucleic-acid assay; conditions: Bos taurus
DNA [7] = assay: Binding affinity to calf thymus DNA assessed as red shift in Soret region at 2 uM by UV-vis absorption titration; assay type: nucleic-acid assay; conditions: Bos taurus
DNA [8] = assay: Binding affinity to calf thymus DNA assessed as hypochromicity at 2 uM by UV-vis absorption titration relative to control; assay type: nucleic-acid assay; conditions: Bos taurus
DNA [9] = assay: Binding affinity to calf thymus DNA assessed as blue shift at 2 uM by fluorescence spectroscopic analysis; assay type: nucleic-acid assay; conditions: Bos taurus
Escherichia coli [10] = assay: Induction of Escherichia coli pBR322 DNA cleavage assessed as conversion of supercoiled form to nicked circular form at 50 uM incubated for 30 mins followed by exposure to visible-light for 1 to 60 mins by agarose gel electrophoretic analysis
[11] = Homo sapiens, A549, light or radiation study

SMILES | pIC50 (A549 [1]; a549) | Activity (Escherichia coli [2]) | K (DNA [3]) | Ratio IC50 (A549 [4]) | pIC50 (A549 [5]; a549) | Activity (DNA [6]) | Activity (DNA [7]) | Activity (DNA [8]) [%] | Activity (DNA [9]) | Activity (Escherichia coli [10]) | pIC50 (A549 [1]; [11]) | pIC50 (A549 [5]; [11])
C[n+]1ccc(-c2c3nc(c(-c4cc[n+](C)cc4)c4ccc([nH]4)c(-c4cc[n+](C)cc4)c4nc(c(-c5ccc(NC(=O)c6cnc7ccccc7n6)cc5)c5ccc2[nH]5)C=C4)C=C3)cc1.[I-].[I-].[I-] | 7.22 | Active | 1.26 ×10⁶ /M | 5 | 6.80 | Active | Active | 39 | Active | Active | – | –
O=C(Nc1ccc(-c2c3nc(c(-c4ccncc4)c4ccc([nH]4)c(-c4ccncc4)c4nc(c(-c5ccncc5)c5ccc2[nH]5)C=C4)C=C3)cc1)c1cnc2ccccc2n1 | – | – | – | – | – | – | – | – | – | – | 6.74 | 6.77
C1=Cc2nc1c(-c1ccccc1)c1nc(c(-c3ccccc3)c3ccc([nH]3)c(-c3ccccc3)c3ccc([nH]3)c2-c2ccccc2)C=C1 [TETRAPHENYLPORPHYRIN] | – | – | – | – | – | – | – | – | – | – | < 4.70 | < 4.70
O=C(Nc1ccc(-c2c3nc(c(-c4ccccc4)c4ccc([nH]4)c(-c4ccccc4)c4nc(c(-c5ccccc5)c5ccc2[nH]5)C=C4)C=C3)cc1)c1cnc2ccccc2n1 | – | Active | 1.98 ×10⁵ /M | – | – | – | – | – | – | inactive | < 4.70 | < 4.70
C[n+]1ccc(-c2c3nc(c(-c4cc[n+](C)cc4)c4ccc([nH]4)c(-c4cc[n+](C)cc4)c4ccc([nH]4)c(-c4cc[n+](C)cc4)c4nc2C=C4)C=C3)cc1 [TMPYP4] | – | – | 2.5 ×10⁶ /M | – | – | – | – | – | – | – | 6.52 | 5.91
